pIC50: −log10 of the molar value. Values joined by “and” are separate entries in the source; they are usually repeats but may differ in a detail not shown here. Equal entries are not always repeated. Active and inactive are the calls of the source. No rule for the calls is given here.
Tested on: M. tuberculosis H37Rv growth inhibition
Test: M. tuberculosis H37Rv growth inhibition, dose response, strain H37Rv (AID 489010)
Conditions: not given

| SMILES | IC90 [µM] |
| --- | --- |
| CC(=O)N(Cc1ccc(F)cc1)C1=C(NCCc2ccccc2)C(=O)c2ccccc2C1=O | 1.31 |
| C(=N\Nc1nncc2ccccc12)/c1ccccn1 | 19.8 |
| Cc1c(/C=N/Nc2nc3ccccc3[nH]2)c2ccccc2n1C | 16.2 |

Same assay, conditions: measured here: H37Rv growth IC50

| SMILES | pIC50 |
| --- | --- |
| Cc1oc2c(c1C(=O)N1CCOCC1)C(=O)c1ccccc1C2=O | 4.75 |
| Cc1nc2c(=O)n(C)c(=O)nc-2n(C)n1 | 5.72 |
| Cc1nn(-c2ccccc2)c(Cl)c1CN(C(=O)CCl)c1cccc2ccccc12 | 4.66 |
| CSc1nnc(NC(=O)c2nc(S(=O)(=O)Cc3cccc(C)c3)ncc2Cl)s1 | 4.62 |
| COc1cc2c(cc1OC)C(c1cc(Br)ccc1F)N(C(=O)CCl)CC2 (configuration not stated) | 5.23 |
| Cc1cc(C)c(S(=O)(=O)/N=C2\C=C(Nc3ccc(C(=O)O)cc3)C(=O)c3ccccc32)c(C)c1 | < 4.00 |
| CC(NC(=O)COC(=O)c1cc(NS(=O)(=O)c2ccc(Cl)c([N+](=O)[O-])c2)ccc1O)C1CC2CCC1C2 (configuration not stated) | 4.28 |
| CC(=O)n1cc(N(C(=O)CCl)c2ccccc2)c2ccccc21 | 5.67 |
| Fc1ccc(Oc2nc(-c3ccccc3)nnc2C(F)(F)F)cc1 | < 4.00 |
| CC(=O)N(Cc1ccc(F)cc1)C1=C(NCCc2ccccc2)C(=O)c2ccccc2C1=O | 6.13 |
| Cc1[nH]n(-c2ccccc2)c(=O)c1C(C[N+](=O)[O-])c1ccc(F)cc1 (configuration not stated) | 4.71 |
| O=C(CCl)N(c1ccc(Cl)cc1)c1c[nH]c2ccccc12 | 5.72 |
| Cn1nc(-c2ccc(Cl)cc2)nc2c(=O)n(C)c(=O)nc1-2 | 5.20 |
| Cc1ccccc1-n1ncc2c([N+](=O)[O-])cc([N+](=O)[O-])cc21 | 6.00 |
| COc1ccc(C(=O)c2c(C(F)(F)F)oc3c2C(=O)c2ccccc2C3=O)cc1OC | 5.02 |
| CCN(CC)CCNC(=O)c1ccc2c(c1NCCO)C(=O)c1ccccc1C2=O | < 4.00 |
| O=C(NC(NC(=S)Nc1ccc(Cl)cc1Cl)C(Cl)(Cl)Cl)c1cccc([N+](=O)[O-])c1 (configuration not stated) | 5.03 |
| Cc1cc(Br)c2c(c1)/C(=C/C(=O)c1cccs1)C(=O)N2 | 4.93 |
| Cc1[nH]n(-c2ccccc2)c(=O)c1C(c1cccc([N+](=O)[O-])c1)c1c(C)[nH]n(-c2ccccc2)c1=O | < 4.00 |
| Cc1ccc(CS(=O)(=O)c2ncc(Cl)c(C(=O)Nc3nnc(C(C)C)s3)n2)cc1 | 4.27 |
| Cc1ccc(Sc2ccc(NC(=O)CCl)cc2)cc1C | 4.84 |
| COc1cc(NCCCCCCCN)c2ncccc2c1 | 4.44 |
| CC(=O)n1cc(N(C(=O)CCl)c2ccc([N+](=O)[O-])cc2)c2ccccc21 | 5.49 |
| Cc1ccc(-n2nnc3c(SCC(=O)NCC4CCCO4)ncnc32)cc1 (configuration not stated) | 4.33 |

| SMILES | pIC50 |
| --- | --- |
| COc1ccc(N(C(=O)CCl)C(C(=O)NCCc2ccccc2)c2cccs2)cc1 (configuration not stated) | 5.11 |
| O=C(Cc1ccccc1)c1c[nH]c(C(=O)C(Cl)(Cl)Cl)c1 | 4.03 |
| CC(=O)n1cc(N(C(=O)CCl)c2ccc(C)cc2)c2ccccc21 | 5.71 |
| Cc1nn(-c2ccccc2)c(Cl)c1CN(C(=O)CCl)c1ccc(Cl)cc1 | 5.82 |
| C=CCOc1ccccc1CN(C(=O)CCl)c1ccc2c(c1)OCO2 | 5.79 |
| Clc1ccc(-n2nnnc2Sc2ncnc3sccc23)cc1 | 5.22 |
| CCCCCCCCCCn1c2c(c(=N)c3c1CCC3)CCC2 | 5.67 |
| O=C(CCl)N1c2ccccc2OCC1c1ccccc1 (configuration not stated) | 5.77 |
| Cn1nc(-c2ccccn2)nc2c(=O)n(C)c(=O)nc1-2 | 5.00 |
| CC(CCc1ccccc1)NC(=O)COC(=O)c1cc(NS(=O)(=O)c2ccc(Cl)c([N+](=O)[O-])c2)ccc1O (configuration not stated) | < 4.00 |
| C(=N\Nc1nncc2ccccc12)/c1ccccn1 | 4.80 |
| CCC(C)[C@@H](NC(=O)OC(C)(C)C)c1nnc(S(=O)(=O)Cc2cccc(C)c2)o1 (some centres not stated) | 4.50 |
| CC(C)(C)c1csc(Sc2ccc([N+](=O)[O-])cn2)n1 | 4.29 |
| O=C(OCn1ncc(Cl)c(Cl)c1=O)c1ccccc1Cl | 4.66 |
| Cc1cc(C)cc(Cn2ncc(Cl)c(Cl)c2=O)c1 | 4.93 |
| CSc1nnc(NC(=O)c2nc(S(=O)(=O)Cc3ccccc3F)ncc2Cl)s1 | 4.38 |
| COc1cccc(N(C(=O)CCl)C(C(=O)NCCc2ccccc2)c2cccs2)c1 (configuration not stated) | 4.72 |
| Cc1sc2ncnc(Sc3nnnn3-c3ccccc3)c2c1C | 4.39 |
| CC(C)c1nnc(NC(=O)c2nc(S(=O)(=O)Cc3ccc(F)cc3)ncc2Cl)s1 | 4.27 |
| CCn1nc(/C=C/c2ccccc2)nc2c(=O)n(C)c(=O)nc1-2 | 5.19 |
| COC(=O)c1sc(-c2ccc(Cl)cc2)cc1NC(=O)/C=C/C(=O)O | 4.38 |
| COC(=O)c1sc(-c2ccc(C(C)(C)C)cc2)cc1NC(=O)/C=C/C(=O)O | 4.72 |
| Cc1ccc(Sc2ccc(NC(=O)CCl)cc2)c(C)c1 | 4.75 |
| Cc1oc2c(c1C(=O)NCc1cccnc1)C(=O)c1ccccc1C2=O | > 6.70 |

| SMILES | pIC50 |
| --- | --- |
| Cn1c(O)c(C2=NN(C(=O)CCl)C(c3ccccc3)C2)c(=O)n(C)c1=O (configuration not stated) | 4.08 |
| Cc1ccc(N(NC(=O)C(O)(c2ccccc2)c2ccccc2)C(=O)CCl)cc1 | 4.92 |
| Cc1c(/C=N/Nc2nc3ccccc3[nH]2)c2ccccc2n1C | 5.02 |
| CN(C1=C(NC(=O)c2ccc(Cl)cc2)C(=O)c2ccccc2C1=O)c1ccccc1 | 5.03 |
| O=C(NC1=C(NC2CCS(=O)(=O)C2)C(=O)c2ccccc2C1=O)c1ccccc1 (configuration not stated) | 4.29 |
| Cc1cccc(Cn2nnc3c2C(=O)c2ccccc2C3=O)c1 | 4.86 |
| CN(C1=C(NC(=O)c2ccccc2)C(=O)c2ccccc2C1=O)C1CCS(=O)(=O)C1 (configuration not stated) | 4.05 |
| Cc1ccc(C(=O)Oc2ccc([N+](=O)[O-])cc2)cc1S(=O)(=O)N1CCCCCC1 | 4.33 |
| COC(=O)c1c(C)oc2ccc(N(C(=O)c3ccncc3)S(=O)(=O)c3ccc4ccccc4c3)cc12 | 4.17 |
| O=C(N/N=C/c1c(O)n(C2CCCCC2)c(=S)[nH]c1=O)c1ccccc1O | < 4.00 |
| Cc1ccc2c(c1)c1c3n2CCN(C(=O)CCl)C3CCC1 (configuration not stated) | 5.86 |
| Cc1ccc(C(=O)OCn2ncc(Cl)c(Cl)c2=O)cc1 | 4.37 |
| O=C(OCn1ncc(Cl)c(Cl)c1=O)c1cccc(C(F)(F)F)c1 | 4.35 |
| O=C(NC1CCCCC1)C(c1cccnc1)N(C(=O)CCl)c1cccc(Cl)c1 (configuration not stated) | 4.81 |
| Cc1ccc(N(C(=O)CCl)C(C(=O)NC2CCCCC2)c2cccnc2)cc1C (configuration not stated) | 4.69 |
| Cc1ccc(C)c(Sc2ccc(NC(=O)CCl)cc2)c1 | 4.65 |
| COc1cc2c(cc1OC)-c1c(OC)c(OC)cc3c1C(C2)N(C)CC3 (configuration not stated) | 4.59 |
| COc1ccc2nc(C)cc(Sc3nc4ccccc4s3)c2c1 | 4.37 |
| CC(C)(C)C1CCc2sc(C(=O)NNC(=O)CCl)cc2C1 (configuration not stated) | 5.20 |
| CC1=NNC(=O)C1Cc1c(Cl)cccc1Cl (configuration not stated) | 4.34 |
| O=C(CCl)Nc1cn(-c2ccccc2)nc1-c1ccc(F)cc1 | > 6.70 |
| C/C(=N\NC(=O)c1ccncc1)c1cc2ccccc2oc1=O | 6.54 |

Tested on: not listed separately
Test: as above
Conditions: M. tuberculosis H37Rv growth inhibition; at 100 µM (top of the series)

| SMILES | growth inhibition |
| --- | --- |
| CSCCC1C(C#N)=C(N)Oc2n[nH]c(-c3cccs3)c21 (configuration not stated) | 11.2% (inactive) |
| Cc1nc2ccccc2c2c1C(=O)N(C)C2=O | -4.82% (inactive) |
| C/C(=N\NC(=O)Cc1cc(=O)[nH][nH]1)c1cccc([N+](=O)[O-])c1 | 2.86% (inactive) |
| CCCCCCOC(=O)c1ccc(OC(=O)c2cccnc2)cc1 | 26.1% (inactive) |
| CCOc1ccccc1C1C(C#N)=C(N)Nc2onc(-c3ccccc3)c21 (configuration not stated) | -3.07% (inactive) |
| O=C(Cc1cc(=O)[nH][nH]1)N/N=C/c1ccccc1Cl | 2.61% (inactive) |
| CCCc1c(-c2ccc(O)cc2)nn(-c2ccc(O)cc2)c1-c1ccc(O)cc1 | 6.41% (inactive) |
| N#CC1=C(N)Oc2n[nH]c(-c3cccs3)c2C1c1ccsc1 (configuration not stated) | 2.91% (inactive) |
| Cc1ccccc1-c1nc(CN(C)C(C)c2ccon2)c(C)o1 (configuration not stated) | 4.51% (inactive) |
| CC1(C)N=C(SCC(=O)Nc2ccc(Cl)cc2)C(c2ccc(Cl)cc2)=N1 | 2.13% (inactive) |
| O=c1cc(-c2ccc(Cl)c(Cl)c2)[nH][nH]1 | 1.79% (inactive) |
| N#CC(C#N)C(c1ccsc1)c1c(-c2ccccc2)[nH][nH]c1=O (configuration not stated) | -3.85% (inactive) |
| COc1cccc(-c2[nH]nc3c2C(c2ccsc2)C(C#N)=C(N)O3)c1 (configuration not stated) | 5.86% (inactive) |
| N#CC1=C(N)Oc2n[nH]c(-c3ccccc3)c2C1c1ccsc1 (configuration not stated) | 7.24% (inactive) |
| N#CC1=C(N)Oc2n[nH]c(-c3cccs3)c2C1c1cccs1 (configuration not stated) | -0.42% (inactive) |
| COc1ccc(/C=C2/C(=O)N(c3ccccc3)N=C2C)cc1OC | 3.28% (inactive) |
| O=C(Cc1cc(=O)[nH][nH]1)N/N=C/c1ccccc1[N+](=O)[O-] | -0.39% (inactive) |

| SMILES | growth inhibition |
| --- | --- |
| CC(C)CCn1c(N)c(C(=O)NCc2cccs2)c2nc3ccccc3nc21 | -0.29% (inactive) |
| N#CC1=C(N)Oc2n[nH]c(-c3cccs3)c2C1c1ccccc1C(=O)O (configuration not stated) | 10.2% (inactive) |
| O=c1cc(-c2ccc(Br)cc2)[nH][nH]1 | -4.27% (inactive) |
| Cc1ccc(C2C(C#N)=C(N)Oc3n[nH]c(-c4cccs4)c32)cc1 (configuration not stated) | 3.65% (inactive) |
| CC(=O)N1CCC2(CC1)C(C#N)=C(N)Oc1n[nH]c(CSc3ccc(C)cc3)c12 | 1.12% (inactive) |
| CCCc1[nH]nc2c1C(c1ccoc1)C(C#N)=C(N)O2 (configuration not stated) | 1.3% (inactive) |
| Cc1ccc(-c2cc(=O)[nH][nH]2)c(C)c1 | 1.66% (inactive) |
| O=C(Cc1cc(=O)[nH][nH]1)N/N=C/c1c(Cl)cccc1Cl | 9.07% (inactive) |
| Cc1ccc(SCC2=NNC(=O)C2)cc1 | 5.45% (inactive) |
| CCOc1ccc(-c2[nH]nc3c2C(c2ccc(O)cc2)C(C#N)=C(N)O3)cc1 (configuration not stated) | -1.9% (inactive) |
| Cc1ccsc1/C=N/NC(=O)Cc1cc(=O)[nH][nH]1 | -3.09% (inactive) |
| COc1ccc(N(C(=O)COc2cccc(C)c2)S(=O)(=O)c2ccc(C)cc2)cc1 | 16.3% (inactive) |
| N#CC1=C(N)Oc2n[nH]c(-c3ccccc3)c2C1c1cccc(OC(=O)N2CCOCC2)c1 (configuration not stated) | -2.13% (inactive) |
| O=C(CSc1nnc(-c2ccccc2Cl)o1)Oc1ccc(Br)cc1 | 0.13% (inactive) |
| O=C(Cc1cc(=O)[nH][nH]1)N/N=C/c1cccc(Cl)c1Cl | -0.74% (inactive) and -0.13% (inactive) |
| Cc1ccc(O)c(N=CC2=C(O)c3ccccc3C2=O)c1 | 9.56% (inactive) |
| O=C(Cc1cc(=O)[nH][nH]1)N/N=C/C=C/c1ccccc1 | -3.45% (inactive) |
